Like-named read-outs stand apart in the source and are kept apart here.

Test [1] has as its target T1, Mab TrmD (Mycobacteroides abscessus, UniProt B1MDI3). Briefly: Differential scanning fluorimetry (DSF) thermal shift. It counts as binding. Conditions: 5 mM ligand. For orientation: In DSF a fluorescence change marks the thermal transition of the protein.
The target in test [2] is T1, Mab TrmD. On the set-up: method as in PMID 32602532. To be noted: cited from earlier work; for thermal shift (ΔTm): 5 mM ligand; for ΔTm: Table 3, 5 mM ligand and 10 μM Mab TrmD.
Test [3] concerns the target T1, Mab TrmD. The experiment in a line: Isothermal titration calorimetry (ITC). To be noted: for GE (CH2R^1): group efficiency of CH2R^1; for GE (R^1): group efficiency of R^1; for GE: group efficiency of the added group; for LE: ligand efficiency. It counts as binding.
The target of test [4] is T1, Mab TrmD. Conditions: ligand efficiency, previously reported, cited from earlier work.

T1 sequence (B1MDI3 entry or part of it): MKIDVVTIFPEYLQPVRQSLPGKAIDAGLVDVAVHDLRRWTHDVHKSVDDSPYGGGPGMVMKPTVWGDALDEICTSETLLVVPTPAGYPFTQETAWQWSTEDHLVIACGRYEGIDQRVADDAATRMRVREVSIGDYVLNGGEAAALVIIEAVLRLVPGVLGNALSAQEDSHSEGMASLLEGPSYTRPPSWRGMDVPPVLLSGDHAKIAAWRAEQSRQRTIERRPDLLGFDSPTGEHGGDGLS

For `COc1cccc(-c2cc(N)n[nH]2)c1` [Compound 19, 5-(3-Methoxyphenyl)-1H-pyrazol-3-amine], on Mab TrmD [1], the “thermal shift (ΔTm)” value was “negative thermal shift”.

As a reminder, the ΔTm is the shift of the melting midpoint relative to a reference. `O=C(O)c1ccc2cc[nH]c2c1` [Compound 21, 1H-indole-6-carboxylic acid]: on Mab TrmD [2], the “thermal shift (ΔTm)” value is “no ΔTm observed” and the ΔTm result was “–0.6 °C”.

As to `N#Cc1c(N)n[nH]c1-c1ccc2ccn(Cc3ccc(CN4CCCC4)cn3)c2c1` [Compound 28, 3-Amino-5-(1-((5-(pyrrolidin-1-ylmethyl)pyridin-2-yl)methyl)-1H-indol-6-yl)-1H-pyrazole-4-carbonitrile], the “GE (CH2R^1)” value at Mab TrmD [3] (Table 6) is reported as 0.17 kcal mol^–1 per heavy atom. For the same molecule, the LE at Mab TrmD [4] (Table 6) and on Mab TrmD [4] was 0.32 kcal mol^–1 per heavy atom each time.

With `COc1ccc(-c2cc(N)[nH]n2)cc1` [Compound 16, 5-(4-methoxyphenyl)-1H-pyrazol-3-amine], the ΔTm entry at Mab TrmD [2] is “+3.0 °C”. Further, the LE at Mab TrmD [4] (Table 3) and on Mab TrmD [4] was 0.37 kcal mol^–1 per heavy atom in each case.

With `N#Cc1c(N)n[nH]c1-c1ccc2ccn(Cc3ccccn3)c2c1` [Compound 26f, 3-Amino-5-(1-(pyridin-2-ylmethyl)-1H-indol-6-yl)-1H-pyrazole-4-carbonitrile], on Mab TrmD [3] (Table 4), the “GE (R^1)” value is given as 0.20 kcal mol^–1 per heavy atom. Further, at Mab TrmD [3], the GE was 0.95 kcal mol^–1 per heavy atom. Also, the LE at Mab TrmD [4] (Table 4) and on Mab TrmD [4] was 0.36 kcal mol^–1 per heavy atom in each case.

In the case of `CCNC(=O)c1cn[nH]c1` [Compound 2, N-Ethyl-1H-pyrazole-4-carboxamide], on Mab TrmD [1], the ΔTm was under 0.5 °C.

As for `Nc1cc(-c2ccc3ccn(Cc4ccccn4)c3c2)[nH]n1` [Compound 24f, 5-(1-(Pyridin-2-ylmethyl)-1H-indol-6-yl)-1H-pyrazol-3-amine], the “GE (R^1)” value on Mab TrmD [3] (Table 4) is given as 0.18 kcal mol^–1 per heavy atom. For the same molecule, the LE at Mab TrmD [4] (Table 4) and at Mab TrmD [4] was 0.30 kcal mol^–1 per heavy atom in each case.

For `CN1CCN(Cc2ccc(Cn3ccc4ccc(-c5[nH]nc(N)c5C#N)cc43)cc2)CC1` [Compound 29d, 3-Amino-5-(1-(4-((4-methylpiperazin-1-yl)methyl)benzyl)-1H-indol-6-yl)-1H-pyrazole-4-carbonitrile], the LE at Mab TrmD [4] (Table 6) and at Mab TrmD [4] was 0.30 kcal mol^–1 per heavy atom throughout.

With `N#Cc1c(N)n[nH]c1-c1ccc2ccn(Cc3ccc(O)nc3)c2c1` [Compound 26k, 3-Amino-5-(1-((6-hydroxypyridin-3-yl)methyl)-1H-indol-6-yl)-1H-pyrazole-4-carbonitrile], on Mab TrmD [3] (Table 5), the “GE (R^1)” value was 0.10 kcal mol^–1 per heavy atom and the LE is recorded as 0.32 kcal mol^–1 per heavy atom. The LE at Mab TrmD [3] was 0.32 kcal mol^–1 per heavy atom.

In the case of `N#Cc1c(N)n[nH]c1-c1ccc2c(Cl)cn(Cc3cccnc3)c2c1` [Compound 27g, 3-Amino-5-(3-chloro-1-(pyridin-3-ylmethyl)-1H-indol-6-yl)-1H-pyrazole-4-carbonitrile], the LE at Mab TrmD [3] (Table 5) and at Mab TrmD [3] was 0.28 kcal mol^–1 per heavy atom throughout.

On to `N#Cc1c(N)n[nH]c1-c1ccc2ccn(Cc3cccnc3)c2c1` [Compound 26g, 3-Amino-5-(1-(pyridin-3-ylmethyl)-1H-indol-6-yl)-1H-pyrazole-4-carbonitrile], for which, on Mab TrmD [3], the “fold improvement in binding affinity (decrease of Kd) relative to 26f” value is “greater than 2 fold” and the LE was 0.38 kcal mol^–1 per heavy atom. Moreover, at Mab TrmD [3] (Table 5), the “GE (R^1)” value is given as 0.28 kcal mol^–1 per heavy atom and the LE is given as 0.38 kcal mol^–1 per heavy atom.

For the molecule `Cc1ccc(-c2cc(N)[nH]n2)cc1` [Compound 18, 5-(p-tolyl)-1H-pyrazol-3-amine], at Mab TrmD [2], the “thermal shift (ΔTm)” value is 1.4–1.5 °C and the ΔTm entry was “+1.4 °C”.

Regarding `OB(O)c1ccc2cc[nH]c2c1` [Compound 20, (1H-indol-6-yl)boronic acid], the ΔTm result at Mab TrmD [2] is “+4.0 °C”. Further, the LE at Mab TrmD [4] (Table 3) and on Mab TrmD [4] was 0.41 kcal mol^–1 per heavy atom each time.

One may read the Kd as a measure of binding affinity in units of concentration. Low values mean a tighter complex, high ones a looser complex. Turning to `N#Cc1c(N)n[nH]c1-c1ccc2ccn(Cc3ccc(CN4CCCCC4)cc3)c2c1` [Compound 29b, 3-Amino-5-(1-(4-(piperidin-1-ylmethyl)benzyl)-1H-indol-6-yl)-1H-pyrazole-4-carbonitrile], on Mab TrmD [3] (Table 6), the Kd was found to be 70 ± 29 nM and the LE is 0.31 kcal mol^–1 per heavy atom.

With `CCOc1cccc(COC(=O)c2cn[nH]c2)c1` [Compound 10, 3-Ethoxybenzyl 1H-Pyrazole-4-carboxylate], the LE on Mab TrmD [3] (Table 2) and on Mab TrmD [3] was 0.38 kcal mol^–1 per heavy atom in each case.

Consider `COc1cc(COC(=O)c2cn[nH]c2)cc(N2CCCC2)c1` [Compound 13, 3-Methoxy-5-(pyrrolidin-1-yl)benzyl 1H-Pyrazole-4-carboxylate], for which the LE at Mab TrmD [3] (Table 2) and at Mab TrmD [3] was 0.31 kcal mol^–1 per heavy atom in each case.

Consider `Nc1cc(-c2ccc3ccn(Cc4ccc(CN5CCCC5)cc4)c3c2)[nH]n1` [Compound 31a, 5-(1-(4-(Pyrrolidin-1-ylmethyl)benzyl)-1H-indol-6-yl)-1H-pyrazol-3-amine], for which the “GE (CH2R^1)” value on Mab TrmD [3] (Table 6) is reported as 0.36 kcal mol^–1 per heavy atom. Moreover, the LE on Mab TrmD [4] (Table 6) is listed as 0.31 kcal mol^–1 per heavy atom.

On to `N#Cc1c(N)n[nH]c1-c1ccc2ccn(Cc3cccnc3O)c2c1` [Compound 26j, 3-Amino-5-(1-((2-hydroxypyridin-3-yl)methyl)-1H-indol-6-yl)-1H-pyrazole-4-carbonitrile], for which the “GE (R^1)” value at Mab TrmD [3] (Table 5) is listed as 0.03 kcal mol^–1 per heavy atom. Moreover, the LE at Mab TrmD [3] (Table 5) and on Mab TrmD [3] was 0.30 kcal mol^–1 per heavy atom throughout.

Take `Nc1cc(-c2ccc3ccn(Cc4ccc(CN5CCCCC5)cc4)c3c2)[nH]n1` [Compound 31b, 5-(1-(4-(Piperidin-1-ylmethyl)benzyl)-1H-indol-6-yl)-1H-pyrazol-3-amine]: at Mab TrmD [3] (Table 6), the Kd was 710 ± 90 nM, the “GE (CH2R^1)” value is reported as 0.28 kcal mol^–1 per heavy atom and the LE was 0.29 kcal mol^–1 per heavy atom.

In the case of `N#Cc1c(N)n[nH]c1-c1ccc2cc[nH]c2c1` [Compound 25, 3-Amino-5-(1H-indol-6-yl)-1H-pyrazole-4-carbonitrile], the LE on Mab TrmD [3] (Table 4) was 0.43 kcal mol^–1 per heavy atom. On Mab TrmD [3], the GE is 0.91 kcal mol^–1 per heavy atom and the LE is 0.43 kcal mol^–1 per heavy atom.

For `COc1ccc(Cn2ccc3ccc(-c4cc(N)n[nH]4)cc32)cc1` [Compound 24a, 5-(1-(4-Methoxybenzyl)-1H-indol-6-yl)-1H-pyrazol-3-amine], at Mab TrmD [3] (Table 4), the “GE (R^1)” value is recorded as 0.04 kcal mol^–1 per heavy atom and the LE is 0.24 kcal mol^–1 per heavy atom. Also, the LE on Mab TrmD [3] is reported as 0.24 kcal mol^–1 per heavy atom.

`COC(=O)COc1cccc(COC(=O)c2cn[nH]c2)c1` [Compound 8, 3-(2-Methoxy-2-oxoethoxy)benzyl 1H-Pyrazole-4-carboxylate]: the LE at Mab TrmD [3] (Table 2) and on Mab TrmD [3] was 0.32 kcal mol^–1 per heavy atom each time.

Take `N#Cc1c(N)n[nH]c1-c1ccc2ccn(Cc3ccc(CN4CCOCC4)cc3)c2c1` [Compound 29c, 3-Amino-5-(1-(4-(morpholinomethyl)benzyl)-1H-indol-6-yl)-1H-pyrazole-4-carbonitrile]: on Mab TrmD [3] (Table 6), binding was put at a Kd of 190 ± 23 nM and the LE was 0.30 kcal mol^–1 per heavy atom. The LE on Mab TrmD [3] is reported as 0.30 kcal mol^–1 per heavy atom.

In the case of `Nc1cc(-c2ccccc2)n[nH]1` [Compound 17, 5-phenyl-1H-pyrazol-3-amine], at Mab TrmD [2], the “thermal shift (ΔTm)” value was 1.4–1.5 °C and the ΔTm entry is “+1.5 °C”.

`Cc1c(N)n[nH]c1-c1ccc2ccn(Cc3ccc(CN4CCCC4)cc3)c2c1` [Compound 30a, 4-Methyl-5-(1-(4-(pyrrolidin-1-ylmethyl)benzyl)-1H-indol-6-yl)-1H-pyrazol-3-amine]: at Mab TrmD [3] (Table 6), the Kd stood at 2000 ± 310 nM and the LE is recorded as 0.27 kcal mol^–1 per heavy atom.

As for `Nc1cc(-c2ccc3cc[nH]c3c2)[nH]n1` [Compound 23, 5-(1H-Indol-6-yl)-1H-pyrazol-3-amine], the LE at Mab TrmD [4] (Table 3) and at Mab TrmD [4] was 0.36 kcal mol^–1 per heavy atom throughout.

Consider `CCOC(=O)c1cn[nH]c1` [Compound 1, ethyl 1H-pyrazole-4-carboxylate], for which the LE at Mab TrmD [3] (Table 1) and on Mab TrmD [3] was 0.55 kcal mol^–1 per heavy atom in each case.

The values are drawn from paper PMC6691401 (Journal of Medicinal Chemistry, 2019).
